Legend:
MC38 tumors [1] = test: MC38 tumor growth after local radiation (20Gy); type: in vivo, mouse
Experimental: 1×10^6 MC38 tumor cells were subcutaneously injected into the flank of mice.
(§1) Tumor volumes were measured along three orthogonal axes (a, b, and c) and calculated as tumor volume=abc/2. Tumors were allowed to grow for 9-10 days and treated by local radiation (Deng et al., 2014). Briefly, the body was protected with a lead cover and the tumor was exposed, allowing local radiation. Tumors were irradiated using RS-2000 Biological Irradiator (RAD SOURCE) at the dose of 20Gy with 160 kV and 25 mA. For type I IFN blockade experiments, 200 μg anti-IFAR1 mAb was intratumorally injected on day 0 and 2 after radiation. For HMGB-1 blockade experiments, 200 μg anti-HMGB-1 mAb (clone 3B1, generated by inventors) was administered i.p. on day 0 and 3 after radiation. For CD8^+ T cell depletion experiments, 300 μg anti-CD8 mAb (Clone 2.43, BioXCell) was delivered 5 times by i.p. injection every three days starting one day before radiation. For exogenous IFN-β treatment experiments, 1×10^10 viral particles of Ad-IFN-β (Burnette, B., et al., The Efficacy of Radiotherapy Relies upon Induction of Type I Interferon-Dependent Innate and Adaptive Immunity, Cancer Res Apr. 1, 2011 71; 2488; (doi: 10.1158/0008-5472.CAN-10-2820)) were intratumorally administered on day 2 after radiation. Ad-null was used as negative control. […]

MC38 tumors [2] = test: ELISPOT of IFNγ-secreting tumor-specific CD8+ T cells from tumor DLNs; type: in vivo, mouse
Experimental: as §1

BMDCs = test: BMDC cross-priming of CD8+ T cells with irradiated tumor cells (ELISPOT); type: cell-based, mouse; details: IFN-β 10 ng/ml in co-culture; DMXAA 100 μg/ml, 3 h
Experimental: Single-cell suspensions of bone marrow cells were obtained from C57BL/6J, STING^−/− and IRF3^−/− mice. Bone marrow from cGAS^−/− mice was kindly provided by Dr. Zhijian J. Chen of University of Texas Southwestern Medical Center, Dallas. The cells were placed in 10 cm petri dish and cultured in RPMI-1640 medium containing 10% fetal bovine serum ([…]), supplemented with 20 ng/ml GM-CSF. Fresh media with GM-CSF was added into culture on day 3. BMDCs (bone marrow-derived dendritic cells) were harvest for stimulation assay on day 7. 8×10^6 MC38-SIY^hi cells were plated into 10 cm cell culture dishes overnight, and then pretreated with 40Gy and incubated for 5 hours. BMDCs were added and co-cultured with MC38-SIY″ cells at the ratio of 1:1 in the presence of fresh GM-CSF for additional 8 hours. Subsequently purified CD11c^+ cells with EasySep™ Mouse CD11c Positive Selection Kit II ([…]) were incubated with isolated CD8^+ T cells from naive 2C mice for three days. For the bypassing assay, 10 ng/ml murine IFN-β was added in the co-culture of BMDCs and tumor cells, or 100 μg/ml DMXAA was added into isolated CD11c^+ cells with additional 3 h incubation. For IFN-β detection, BMDCs were co-cultured with tumor cells at the ratio of 1:1 for additional 8 hours, and 1×10^6 cells/ml purified CD11c^+ cells were seed into 96-well plates for 48 hours. […]

[3] = system: RIG-I^−/− and WT MEFs; shRIG-I D54 and HCT116 tumor cells; test: Caspase 3/7 activity in response to chemotherapy drugs with or without RIG-I; type: cell-based; details: increasing doses of drug
[4] = molecular target: T1, RIG-I (DDX58), full-length (Homo sapiens) (UniProt O95786); test: pulldown; details: CLIP-qPCR, enrichment in RIG-I complexes from irradiated (6 Gy) vs non-irradiated HEK293; also enriched in HCT116
T1 sequence: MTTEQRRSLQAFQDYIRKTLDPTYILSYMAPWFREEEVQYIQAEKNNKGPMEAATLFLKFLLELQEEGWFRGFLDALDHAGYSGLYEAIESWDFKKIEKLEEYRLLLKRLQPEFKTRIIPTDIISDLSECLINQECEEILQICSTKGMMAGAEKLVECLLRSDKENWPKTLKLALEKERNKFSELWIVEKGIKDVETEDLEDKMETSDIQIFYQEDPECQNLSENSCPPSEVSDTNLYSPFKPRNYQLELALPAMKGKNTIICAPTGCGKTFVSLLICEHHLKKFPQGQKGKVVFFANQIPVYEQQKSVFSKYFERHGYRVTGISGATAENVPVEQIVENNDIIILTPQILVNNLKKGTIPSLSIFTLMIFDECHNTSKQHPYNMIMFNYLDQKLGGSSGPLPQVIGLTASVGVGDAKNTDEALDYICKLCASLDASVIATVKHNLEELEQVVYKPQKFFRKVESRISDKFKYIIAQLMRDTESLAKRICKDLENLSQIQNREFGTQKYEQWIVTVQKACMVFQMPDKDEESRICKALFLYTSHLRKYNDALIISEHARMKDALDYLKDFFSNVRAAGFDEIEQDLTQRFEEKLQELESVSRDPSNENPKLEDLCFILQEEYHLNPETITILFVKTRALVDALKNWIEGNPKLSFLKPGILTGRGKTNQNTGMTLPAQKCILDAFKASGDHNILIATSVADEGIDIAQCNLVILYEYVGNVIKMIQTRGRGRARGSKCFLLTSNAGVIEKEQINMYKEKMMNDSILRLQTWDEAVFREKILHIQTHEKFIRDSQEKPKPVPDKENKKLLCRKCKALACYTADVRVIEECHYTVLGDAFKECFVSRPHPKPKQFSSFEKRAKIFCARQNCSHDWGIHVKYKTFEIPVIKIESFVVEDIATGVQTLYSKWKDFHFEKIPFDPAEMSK

RIG-I = molecular target: T2, RIG-I (Homo sapiens, UniProt O95786); test: HEK293 IFN-beta promoter dual luciferase reporter, RNA stimulation; type: cell-based; details: 1 μg synthetic oligonucleotide, 24 hour stimulation
T2 construct: HEK293 cells overexpressing either the full length RIG-I; host or cells: HEK293; HCT116 also for the qRT-PCR validation
T2 sequence (O95786 1-925): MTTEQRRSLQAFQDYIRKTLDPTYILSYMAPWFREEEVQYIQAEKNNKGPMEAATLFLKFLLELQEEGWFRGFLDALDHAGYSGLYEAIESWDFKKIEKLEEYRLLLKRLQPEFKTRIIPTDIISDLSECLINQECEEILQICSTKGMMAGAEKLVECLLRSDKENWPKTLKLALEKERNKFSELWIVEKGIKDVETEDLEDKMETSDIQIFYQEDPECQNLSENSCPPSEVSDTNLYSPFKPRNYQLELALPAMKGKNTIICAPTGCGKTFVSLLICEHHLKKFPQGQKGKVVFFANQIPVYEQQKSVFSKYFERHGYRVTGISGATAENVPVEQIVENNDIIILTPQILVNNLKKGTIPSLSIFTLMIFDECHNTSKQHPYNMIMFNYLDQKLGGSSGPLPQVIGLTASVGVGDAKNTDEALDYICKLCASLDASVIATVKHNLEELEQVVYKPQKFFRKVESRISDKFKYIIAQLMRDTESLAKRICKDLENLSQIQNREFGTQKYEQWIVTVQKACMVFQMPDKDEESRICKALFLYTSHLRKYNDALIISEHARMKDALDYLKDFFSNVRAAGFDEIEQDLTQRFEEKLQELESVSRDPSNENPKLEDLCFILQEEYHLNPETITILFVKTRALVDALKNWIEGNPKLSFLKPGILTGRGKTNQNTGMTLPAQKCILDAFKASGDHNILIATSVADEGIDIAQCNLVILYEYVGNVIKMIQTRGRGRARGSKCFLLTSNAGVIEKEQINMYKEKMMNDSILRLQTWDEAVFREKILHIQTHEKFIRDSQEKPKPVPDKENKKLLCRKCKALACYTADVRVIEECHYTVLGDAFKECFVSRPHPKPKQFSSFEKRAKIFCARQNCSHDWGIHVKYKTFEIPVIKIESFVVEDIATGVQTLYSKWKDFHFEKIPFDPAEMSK
Experimental: We also used reporter HEK293 cells as simple technique to evaluate ability of the given RNA to stimulate IFN-beta production in preliminary in vitro experiments. Technically this was performed as follows: RNA stimulation of HEK293 IFN-beta reporter cells HEK293 cells were seeded in a 24-well plate overnight at a density of 1.5×10^5 cells/ml (75,000 cells/well). Cells were co-transfected with 100 ng of plasmid construct (pCAGGS empty vector, pCAGGS-RIG-I full-length, pCAGGS-RIG-I helicase-RD mutant construct, and […] mutant construct), together with 80 ng of a firefly luciferase reporter gene driven by an IFN-beta promoter and 20 ng of a Renilla luciferase (pRL-null) transfection control. Transfections were performed using a cationic lipid agent, Fugene HD (Promega), at a 3:1 lipid:DNA ratio. Twenty-four hours post-transfection, cells were then stimulated with 1 μg RNA* mixed with Fugene HD at 2:1 lipid: RNA ratio for 24 hours. 20 μl cell lysates were collected in opaque 96-well plates and analyzed for IFN-beta-luciferase and Renilla activity using a BioTek Synergy HT plate reader. The transfection efficiency across different wells was normalized by dividing the IFN-beta luciferase activity with the Renilla activity. All values were further normalized to the unstimulated controls in cells transfected with the empty vector. All pCAGGS RIG-I constructs used in this study were generous gifts from Dr. Jenish Patel and Dr. Adolfo Garcia-Sastre of The Icahn School of Medicine at Mount Sinai in New York City. Synthetic RNA comprised of various stem loop regions of the human U1 snRNA were purchased from IDT Oligos as reported in (Bernard et al., 2012). U1 stem loop I sequence: [NT] ID NO:15); U1 stem loop II sequence: [NT] ID NO:16); U1 stem loop III sequence: [NT] ID NO:17); U1 stem loop IV sequence: [NT] ID NO:18); U1 stem loops I and II sequence: [NT] ID NO:19); U1 stem loops II and III sequence: [NT] ID NO:20). In vitro transcribed U1 RNA stimulation: Full length U1 (pT7U1) plasmid was generously provided by Dr. Joan Steitz (Yale School of Medicine, Yale University). […]

## Nc1nc2c(ncn2[C@@H]2O[C@@H]3COP(=O)(O)O[C@H]4[C@@H](O)[C@H](n5cnc6c(N)ncnc65)O[C@@H]4COP(=O)(O)O[C@@H]2[C@@H]3O)c(=O)[nH]1 [2′3′-cGAMP, cyclic [G(2′,5′)pA(3′,5′)p]]
MC38 tumors [1]; STING^−/− mice
  synergy with radiation: abrogated
MC38 tumors [1]; WT mice, 10 μg intratumorally on day 2 and 6 after 20Gy
  tumor burden, combination with radiation compared to either alone: effectively reduce tumor burden
MC38 tumors [2]; combination with radiation vs radiation or 2′3′-cGAMP alone, WT mice
  number of tumor-specific IFN-γ-producing CD8+ T cells in DLNs: significantly increased
MC38 tumors [2]; deficiency of STING in the host
  antitumor CD8+ T cell response induced by combination with radiation: dampened

## Cc1ccc2c(=O)c3cccc(CC(=O)O)c3oc2c1C [DMXAA]
BMDCs
  function of STING^−/− BMDCs (cross-priming): fails to rescue
  function of cGAS^−/− BMDCs (cross-priming): restored

## N.N.[Cl][Pt][Cl] [cisplatin]
[3]
  caspase 3/7 activity in response to drug treatment, RIG-I absent or depleted vs control cells: reduced caspase 3/7 activity

## COc1cccc2c1C(=O)c1c(O)c3c(c(O)c1C2=O)C[C@@](O)(C(=O)CO)C[C@@H]3O[C@H]1C[C@H](N)[C@H](O)[C@H](C)O1 [doxorubicin]
[3]
  caspase 3/7 activity in response to drug treatment, RIG-I absent or depleted vs control cells: reduced caspase 3/7 activity

## U1 snRNA (endogenous)
[4]
  binding signal: 6 fold

B1: SL I+II: synthetic RNA of U1 stem loops I and II, SEQ ID NO:19 (nucleic acid)
chain: GGGAGATACCATGATCACGAAGGTGGTTTTCCCAGGGCGAGGCTTATCCATTGCACTCCGGATGTGCTGACCCC
modifications: listed as DNA, chemistry not given here
RIG-I
  IFN-beta response (reporter activity in HEK293; IFN-b in MEF supernatant): potent inducers of IFN-beta response

B2: SL II+III: synthetic RNA of U1 stem loops II and III, SEQ ID NO:20 (nucleic acid)
chain: GGGCGAGGCTTATCCATTGCACTCCGGATGTGCTGACCCCTGCGATTTCCCCAAATGTGGGAAACTCGACTGC
modifications: listed as DNA, chemistry not given here
RIG-I
  IFN-beta response (reporter activity in HEK293; IFN-b in MEF supernatant): potent inducers of IFN-beta response
